Four compounds from patent US11000033B2, “Ketone or oxime compound, and herbicide” (NISSAN CHEMICAL CORPORATION, priority 2014, dated 2021) can be followed below.

Holding throughout (format): in vivo
The test system of series [1] is Echinochloa oryzacola Vasing. Kind of series: Test Example 1: herbicidal activity, application before weed generation in submerged conditions (symbol A). The settings on record: application herbicide amount 320 g/ha. The procedure, abridged: (§1)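 Greenhouse growth at 25–30 °C lasted 3 weeks after treatment, when each weed was graded 0–5 by herbicidal ratio. Treatment was a diluted emulsion applied to the water surface of 4 cm-submerged alluvial soil on the sowing day.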

In series [2] the test system is Monochoria vaginalis. As to the kind of experiment: Test Example 1: herbicidal activity, application before weed generation in submerged conditions (symbol C). The conditions noted are these: application herbicide amount 320 g/ha. The procedure, abridged: as §1
For series [3], the system named is Monochoria vaginalis. As to the kind of experiment: Test Example 2: herbicidal activity, application during weed generation in submerged conditions (symbol C). The settings on record: Table 23; application herbicide amount 320 g/ha; grade 0-5 by criteria of Test Example 1. The procedure, abridged: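 Submerged alluvial soil (4 cm) sown with mixed seed; greenhouse 25–30° C. 1–2 leaf: diluted emulsion onto water surface, preset dose. Visual score, 3 wk.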

Series [4] concerns Echinochloa crus-galli var. crus-galli. Kind of series: Test Example 4: herbicidal effect by soil treatment (symbol H). The conditions noted are these: application herbicide amount 320 g/ha. The procedure, abridged: (§2)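 Seeds were sown in sterilized diluvial soil, covered with about 1.5 cm of soil, and the soil surface was sprayed with a water-diluted emulsion of the compound at a predetermined rate. Plants grew in a greenhouse at 25° C. to 30° C.; effects were scored visually 3 weeks after application.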

The test system of series [5] is Avena fatua. As to the kind of experiment: Test Example 4: herbicidal effect by soil treatment (symbol I). The conditions noted are these: application herbicide amount 320 g/ha. The procedure, abridged: as §2
Series [6] deals with Apera spica-venti. As to the kind of experiment: Test Example 4: herbicidal effect by soil treatment (symbol L). The conditions noted are these: application herbicide amount 320 g/ha. The procedure, abridged: as §2
In another series the test system is Abutilon theophrasti. As to the kind of experiment: Test Example 4: herbicidal effect by soil treatment (symbol M). The settings on record: application herbicide amount 320 g/ha. The procedure, abridged:
as §2

The subject of a further series is soybean. As to the kind of experiment: Test Example 4: effect on crop by soil treatment (symbol d). The conditions noted are these: application herbicide amount 320 g/ha. The procedure, abridged: (§3)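 Crop seed is sown in spots together with several weed species in a box of sterilized diluvial soil. It is covered by about 1.5 cm of soil and kept in a greenhouse held between 25° C. and 30° C.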

A further series has as its system rice. As to the kind of experiment: Test Example 4: effect on crop by soil treatment (symbol b). The conditions noted are these: application herbicide amount 320 g/ha. The procedure, abridged:
as §3

Another series concerns beet. Kind of series: Test Example 4: effect on crop by soil treatment (symbol f). The settings on record: application herbicide amount 320 g/ha. The procedure, abridged: as §3
For another series, the system named is Setaria viridis. Kind of series: Test Example 5: herbicidal effect by foliage application, plastic box (symbol G). The settings on record: 320 g/ha, 3 weeks after application. The procedure, abridged:
(§4)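 Post-emergence spray; diluvial soil (sterilized), ~1.5 cm seed cover; greenhouse 25–30° C; 14-day-old plants; water-diluted emulsion at predetermined dose; visual score at 3 wk post-treatment.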

The subject of series [7] is Echinochloa crus-galli var. crus-galli. As to the kind of experiment: Test Example 5: herbicidal effect by foliage application, plastic box (symbol H). The conditions noted are these: 320 g/ha, 3 weeks after application. The procedure, abridged: as §4
Series [8] deals with Avena fatua. Kind of series: Test Example 5: herbicidal effect by foliage application, plastic box (symbol I). The settings on record: 320 g/ha, 3 weeks after application. The procedure, abridged:
as §4

In series [9] the test system is Apera spica-venti. Kind of series: Test Example 5: herbicidal effect by foliage application, plastic box (symbol L). The settings on record: 320 g/ha, 3 weeks after application. The procedure, abridged: as §4
A further series concerns corn. As to the kind of experiment: Test Example 5: effect on crop by foliage application, plastic box (symbol c). The conditions noted are these: 320 g/ha, 3 weeks after application. The procedure, abridged:
(§5)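 In a plastic box 7 cm deep filled with sterilized diluvial soil, seeds of crops and weeds such as Digitaria ciliaris, Avena fatua and Amaranthus retroflexus are sown in spots and covered with about 1.5 cm of soil before greenhouse growth at 25–30° C.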

In a further series the test system is rapeseed. Kind of series: Test Example 5: effect on crop by foliage application, plastic box (symbol g). The settings on record: 320 g/ha, 3 weeks after application. The procedure, abridged:
as §5

In the case of `CON=C(C)CC1CC(OC(=O)COc2ccccc2)=C(c2c(C)cc(-c3ccc(Cl)cc3)cc2C)C1=O` (mixture of isomers) [6-061], the “Herbicidal effect grade, A: Echinochloa oryzacola Vasing.” value in series [1] is listed as 5 (Herbicidal ratio of 90% or more (almost completely withered)). Besides, the “Herbicidal effect grade, C: Monochoria vaginalis” value (“Herbicidal effect grade, C” below) with Monochoria vaginalis [2] is 1 (Herbicidal ratio of 5% or higher and lower than 20%); in the series with Monochoria vaginalis [3] it was 2 (Herbicidal ratio of 20% or higher and lower than 40%). For the same compound, the “H: Echinochloa crus-galli var. crus-galli, herbicidal effect grade” value in [4] is given as 5 (Herbicidal ratio of 90% or more (almost completely withered)). For the same compound, in the series on Avena fatua [5], the “I: Avena fatua, herbicidal effect grade” value is 4 (Herbicidal ratio of 70% or higher and lower than 90%). Further, in the series on Apera spica-venti [6], the “L: Apera spica-venti, herbicidal effect grade” value is reported as 5 (Herbicidal ratio of 90% or more (almost completely withered)). For the same compound, the “M: Abutilon theophrasti, herbicidal effect grade” value in the series on Abutilon theophrasti is 1 (Herbicidal ratio of 5% or higher and lower than 20%). Also, the “d: soybean, effect on crop grade” value in the series on soybean was 0 (Herbicidal ratio of 5% or lower (almost no effect)). Moreover, the “b: directly sowed rice plant, effect on crop grade” value in the series on rice is 5 (Herbicidal ratio of 90% or more (almost completely withered)). In the series with beet, the “f: beet, effect on crop grade” value is on record as 0 (Herbicidal ratio of 5% or lower (almost no effect)). The “G: Setaria viridis, herbicidal effect (criteria of Test Example 1)” value (shortened to “G: Setaria viridis, herbicidal effect”) in the series with Setaria viridis is 5 (Herbicidal ratio of 90% or more (almost completely withered)). Besides, the “H: Echinochloa crus-galli var. crus-galli, herbicidal effect (criteria of Test Example 1)” value in series [7] was 5 (Herbicidal ratio of 90% or more (almost completely withered)). Also, in the series with Avena fatua [8], the “I: Avena fatua, herbicidal effect (criteria of Test Example 1)” value is 5 (Herbicidal ratio of 90% or more (almost completely withered)). In addition, the “L: Apera spica-venti, herbicidal effect (criteria of Test Example 1)” value with Apera spica-venti [9] is recorded as 5 (Herbicidal ratio of 90% or more (almost completely withered)). Moreover, in the series with corn, the “c: corn, effect on crop (criteria of Test Example 1)” value (shortened to “c: corn, effect on crop”) is on record as 5 (Herbicidal ratio of 90% or more (almost completely withered)). The “g: rapeseed, effect on crop (criteria of Test Example 1)” value (“g: rapeseed, effect on crop” for short) in the series with rapeseed was 4 (Herbicidal ratio of 70% or higher and lower than 90%).
As for `CON=C(C)CC1CC(OC(=O)N2CCOCC2)=C(c2c(C)cc(-c3ccc(F)cc3)cc2C)C1=O` (mixture of isomers) [6-059], the “Herbicidal effect grade, A: Echinochloa oryzacola Vasing.” value in [1] is 5 (Herbicidal ratio of 90% or more (almost completely withered)). For the same compound, the “Herbicidal effect grade, C” value was 4 (Herbicidal ratio of 70% or higher and lower than 90%) with Monochoria vaginalis [2]; 4 (Herbicidal ratio of 70% or higher and lower than 90%) in the series with Monochoria vaginalis [3]. Further, the “H: Echinochloa crus-galli var. crus-galli, herbicidal effect grade” value in [4] is 2 (Herbicidal ratio of 20% or higher and lower than 40%). Also, in the series with Avena fatua [5], the “I: Avena fatua, herbicidal effect grade” value was 3 (Herbicidal ratio of 40% or higher and lower than 70%). Further, the “L: Apera spica-venti, herbicidal effect grade” value with Apera spica-venti [6] was 5 (Herbicidal ratio of 90% or more (almost completely withered)). For the same compound, the “M: Abutilon theophrasti, herbicidal effect grade” value with Abutilon theophrasti is reported as 0 (Herbicidal ratio of 5% or lower (almost no effect)). For the same compound, in the series with soybean, the “d: soybean, effect on crop grade” value is recorded as 0 (Herbicidal ratio of 5% or lower (almost no effect)). The “b: directly sowed rice plant, effect on crop grade” value in the series on rice is 0 (Herbicidal ratio of 5% or lower (almost no effect)). Besides, the “f: beet, effect on crop grade” value in the series on beet was 0 (Herbicidal ratio of 5% or lower (almost no effect)). Also, in the series with Setaria viridis, the “G: Setaria viridis, herbicidal effect” value is 5 (Herbicidal ratio of 90% or more (almost completely withered)). Further, the “H: Echinochloa crus-galli var. crus-galli, herbicidal effect (criteria of Test Example 1)” value in [7] is recorded as 5 (Herbicidal ratio of 90% or more (almost completely withered)). For the same compound, the “I: Avena fatua, herbicidal effect (criteria of Test Example 1)” value in the series on Avena fatua [8] is recorded as 5 (Herbicidal ratio of 90% or more (almost completely withered)). In addition, in the series on Apera spica-venti [9], the “L: Apera spica-venti, herbicidal effect (criteria of Test Example 1)” value was 5 (Herbicidal ratio of 90% or more (almost completely withered)). In addition, the “c: corn, effect on crop” value in the series on corn is given as 5 (Herbicidal ratio of 90% or more (almost completely withered)). In the series with rapeseed, the “g: rapeseed, effect on crop” value was 5 (Herbicidal ratio of 90% or more (almost completely withered)).
Take `CCc1cc(Br)cc(C)c1C1=C(O)CC(CC(C)=O)C1=O` (stereo not shown) [7-003]: the “Herbicidal effect grade, A: Echinochloa oryzacola Vasing.” value in series [1] was 5 (Herbicidal ratio of 90% or more (almost completely withered)). Moreover, the “Herbicidal effect grade, C” value in the series with Monochoria vaginalis [2] and in the series with Monochoria vaginalis [3] was 0 (Herbicidal ratio of 5% or lower (almost no effect)) each time. Also, in series [4], the “Herbicidal effect grade, H: Echinochloa crus-galli var. crus-galli” value was 5 (Herbicidal ratio of 90% or more (almost completely withered)). Also, in the series with Avena fatua [5], the “Herbicidal effect grade, I: Avena fatua” value is 4 (Herbicidal ratio of 70% or higher and lower than 90%). In the series on Apera spica-venti [6], the “Herbicidal effect grade, L: Apera spica-venti” value is 5 (Herbicidal ratio of 90% or more (almost completely withered)). Further, the “Herbicidal effect grade, M: Abutilon theophrasti” value in the series on Abutilon theophrasti is 0 (Herbicidal ratio of 5% or lower (almost no effect)). For the same compound, the “Effect on crop grade, d: soybean” value with soybean was 0 (Herbicidal ratio of 5% or lower (almost no effect)). In addition, in the series on rice, the “Effect on crop grade, b: directly sowed rice plant” value is 5 (Herbicidal ratio of 90% or more (almost completely withered)). For the same compound, the “Effect on crop grade, f: beet” value with beet is 0 (Herbicidal ratio of 5% or lower (almost no effect)). For the same compound, in the series with Setaria viridis, the “G: Setaria viridis, herbicidal effect” value is recorded as 5 (Herbicidal ratio of 90% or more (almost completely withered)). For the same compound, the “H: Echinochloa crus-galli var. crus-galli, herbicidal effect (criteria of Test Example 1)” value in series [7] is reported as 5 (Herbicidal ratio of 90% or more (almost completely withered)). For the same compound, the “I: Avena fatua, herbicidal effect (criteria of Test Example 1)” value in the series with Avena fatua [8] is on record as 5 (Herbicidal ratio of 90% or more (almost completely withered)). In addition, in the series on Apera spica-venti [9], the “L: Apera spica-venti, herbicidal effect (criteria of Test Example 1)” value is 5 (Herbicidal ratio of 90% or more (almost completely withered)). Besides, the “c: corn, effect on crop” value in the series with corn is on record as 5 (Herbicidal ratio of 90% or more (almost completely withered)). Moreover, the “g: rapeseed, effect on crop” value in the series with rapeseed is listed as 0 (Herbicidal ratio of 5% or lower (almost no effect)).
Regarding `CC(=O)CC1CC(O)=C(c2c(C)cc(-c3ccc(C)cc3)cc2C)C1=O` (stereo not shown) [7-007], in series [1], the “Herbicidal effect grade, A: Echinochloa oryzacola Vasing.” value is 5 (Herbicidal ratio of 90% or more (almost completely withered)). Further, the “Herbicidal effect grade, C” value with Monochoria vaginalis [2] is 3 (Herbicidal ratio of 40% or higher and lower than 70%); with Monochoria vaginalis [3] it was 3 (Herbicidal ratio of 40% or higher and lower than 70%). Besides, the “Herbicidal effect grade, H: Echinochloa crus-galli var. crus-galli” value in [4] was 5 (Herbicidal ratio of 90% or more (almost completely withered)). Moreover, the “Herbicidal effect grade, I: Avena fatua” value in the series on Avena fatua [5] was 0 (Herbicidal ratio of 5% or lower (almost no effect)). Also, the “Herbicidal effect grade, L: Apera spica-venti” value in the series on Apera spica-venti [6] is 5 (Herbicidal ratio of 90% or more (almost completely withered)). Moreover, in the series with Abutilon theophrasti, the “Herbicidal effect grade, M: Abutilon theophrasti” value is 0 (Herbicidal ratio of 5% or lower (almost no effect)). The “Effect on crop grade, d: soybean” value with soybean is 0 (Herbicidal ratio of 5% or lower (almost no effect)). In addition, in the series with rice, the “Effect on crop grade, b: directly sowed rice plant” value was 4 (Herbicidal ratio of 70% or higher and lower than 90%). The “Effect on crop grade, f: beet” value with beet was 0 (Herbicidal ratio of 5% or lower (almost no effect)). Moreover, the “G: Setaria viridis, herbicidal effect” value in the series with Setaria viridis was 5 (Herbicidal ratio of 90% or more (almost completely withered)). Moreover, the “H: Echinochloa crus-galli var. crus-galli, herbicidal effect (criteria of Test Example 1)” value in [7] is listed as 5 (Herbicidal ratio of 90% or more (almost completely withered)). Besides, the “I: Avena fatua, herbicidal effect (criteria of Test Example 1)” value in the series on Avena fatua [8] is 4 (Herbicidal ratio of 70% or higher and lower than 90%). Further, the “L: Apera spica-venti, herbicidal effect (criteria of Test Example 1)” value in the series on Apera spica-venti [9] was 5 (Herbicidal ratio of 90% or more (almost completely withered)). Also, in the series with corn, the “c: corn, effect on crop” value is 5 (Herbicidal ratio of 90% or more (almost completely withered)). The “g: rapeseed, effect on crop” value in the series on rapeseed is recorded as 0 (Herbicidal ratio of 5% or lower (almost no effect)).
